Reference: patent US7875638B2, “Synthesis of epothilones, intermediates thereto, analogues and uses thereof” (Sloan-Kettering Institute for Cancer Research, priority 2002, dated 2011)

Columns and labels:
in vitro = conditions: mouse, plasma
Description: Stability of epothilones in mouse and in human liver S9 fraction. The stability study was carried out with a fully automated HPLC system which consisted of a Prospekt-2 (Spark Holland, Netherlands) sample preparation system and an Agilent 1100 HPLC system. Briefly, the Prospekt 2 picked up a C8 extraction cartridge and washed it with acetonitrile and water. The Agilent autosampler, set at 37° C., picked up 20 μl of the sample, loaded it onto the cartridge, washed it with water, then the Prospekt-2 diverted the mobile phase stream through the extraction cartridge onto the analytical column, Reliance Stable Bond C8 4×80 mm with guard column (MacMod, Chadds Ford, Pa.) and the eluent was monitored at 250 nm. […] Sample preparation involved the addition of equal volumes of plasma to PBS for a total volume of 300-400 μl, filtered, and the addition of 0.5-2 μl of the substrate (20 mM) to achieve about 30-50 mAU at 250 nm in the HPLC analysis. For pooled human liver microsome S9 fraction (Xeno Tech, Lenex, Kans.), 20 μl (400 μg) or S9 fraction was mixed with 280 μl of PBS then proceeded as above. The sampling period was controlled by the autosampler and peak area data were collected to compare the rate of disappearance of the parent compound.
Stability of epothilones in mouse and in human liver S9 fraction: The stability study was carried out with a fully automated HPLC system which consisted of a Prospekt-2 (Spark Holland, Netherlands) sample preparation system and an Agilent 1100 HPLC system. Briefly, the Prospekt 2 picked up a C8 extraction cartridge and washed it with acetonitrile and water. The Agilent autosampler, set at 37° C., picked up 20 μl of the sample, loaded it onto the cartridge, washed it with water, then the Prospekt-2 diverted the mobile phase stream through the extraction cartridge onto the analytical column, Reliance Stable Bond C8 4×80 mm with guard column (MacMod, Chadds Ford, Pa.) and the eluent was monitored at 250 nm. […] Sample preparation involves the addition of equal volumes of plasma to PBS for a total volume of 400 μl, filtered, and the addition of 0.5-2 μl of the substrate (20 mM) to achieve about 30-50 mAU at 250 nm in the HPLC analysis. For pooled human liver microsome S9 fraction (Xeno Tech, Lenex, Kans.), 20 μl (400 μg) or S9 fraction was mixed with 280 μl of PBS then proceeds as above. The sampling period was controlled by the autosampler and peak area data were collected to compare the rate of disappearance of the parent compound.

[1] = tested on: human colon carcinoma HCT-116 xenograft; experiment: HCT-116 xenograft in nude mice; conditions: for Tumor relapse during follow-up to D200: Fludelone 20 and 30 mg/kg; for Tumor free following the cessation of treatment: mouse, in vivo

Question: With C/C(=C\c1csc(C)n1)[C@@H]1C/C=C(/C(F)(F)F)C/C=C/[C@H](C)[C@H](O)[C@@H](C)C(=O)C(C)(C)[C@@H](O)CC(=O)O1 [Compound 29, 26-trifluoro-trans-9,10-dehydro-12,13-desoxyepothilone B] as the compound, how does the half-life (in vitro) read?
Answer: 3.53 ± 1.47 h

Question: And the “Maximal body weight loss without lethality” value ([1]; 30 mg/kg, end of the 2nd cycle (D29))?
Answer: 30%

Question: And the “Tumor relapse during follow-up to D200” value ([1]; Taxol 20 mg/kg)?
Answer: no tumor relapse

Question: What about the “Tumor relapse during follow-up to D200” value ([1]; Taxol 20 mg/kg, listed as F3-deH-dEpoB) of the same compound?
Answer: no tumor relapse in 4 out of 4 mice on D200

Question: And the “Tumor disappearance (mice)” value ([1]; Q2Dx4, 6 hr-i.v. infusion for 3 cycles, F3-deH-dEpoB 20 and 30 mg/kg, Taxol 20 mg/kg)?
Answer: 4 out of 4

Question: What about the “Tumor free following the cessation of treatment” value ([1]; listed as 26-trifluoro-9,10-trans-dehdyro-epothilone D) of the same compound?
Answer: over 5.2 months

Question: And the “Tumor free following the cessation of treatment” value ([1]; listed as Fludelone)?
Answer: over 5.3 months
